# Earlier results in patent US20240122962A1, “PHARMACEUTICAL COMPOSITION FOR USE IN THE PREVENTION OR TREATMENT OF A CONDITION ASSOCIATED WITH A REDUCTION IN THE NUMBER OF LACTOBACILLI IN THE VAGINA” (priority 2020, published 2024).
# Test system: bacterial vaginosis (BV)
# Settings: 7-day oral treatment, after 1 month
compound,measurement,value
"Cc1ncc([N+](=O)[O-])n1CCO [Metronidazole, metronidazole]",cure rate,80-90%
